Data taken from patent US20230085307A1, “PYRIDAZINONE COMPOUND AND HERBICIDE” (NISSAN CHEMICAL CORPORATION, priority 2019, published 2023).

Assays:
late watergrass = test: Test Example 2: herbicidal activity, application during weed generation under submerged conditions (Table 17, symbol A); assay type: in vivo, late watergrass (Echinochloa oryzicola); conditions: application during weed generation, submerged conditions
Method in brief: (§1)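 In this pot test, flooded alluvial soil (water depth 4 cm) holds all three species sown as a mixture. Once seedlings have one to two leaves, the compound's emulsion, thinned with water to the intended dose, is poured on the water; grading follows after three weeks on the earlier criteria.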

oval-leafed pondweed = test: Test Example 2: herbicidal activity, application during weed generation under submerged conditions (Table 17, symbol C); assay type: in vivo, oval-leafed pondweed (Monochoria vaginalis); conditions: application during weed generation, submerged conditions
Method in brief: as §1

redroot pigweed = test: Test Example 5: herbicidal effect by foliage application, plastic box (Table 20, symbol N); assay type: in vivo, redroot pigweed (Amaranthus retroflexus); conditions: foliage application, three weeks after application
Method in brief: (§2)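 Plants sown in sterilized diluvial soil and grown 14 days in a greenhouse at 25° C to 30° C, then sprayed on the foliage with the compound's emulsion diluted in water to a predetermined herbicide amount. Injury to weeds and crops scored three weeks after application on a visual rating scale.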

velvetleaf = test: Test Example 5: herbicidal effect by foliage application, plastic box (Table 20, symbol M); assay type: in vivo, velvetleaf (Abutilon theophrasti); conditions: foliage application, three weeks after application
Method in brief: as §2

windgrass = test: Test Example 4: herbicidal effect by soil treatment (Table 19, symbol L); assay type: in vivo, windgrass (Apera spica-venti)
Method in brief: (§3)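 Three weeks of greenhouse growth at 25° C. to 30° C. followed a uniform surface spray of water-diluted emulsion at a predetermined herbicide amount. Seeds had been sown beforehand under about 1.5 cm of sterilized diluvial soil. Grading followed criteria set out in an earlier test.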

green foxtail = test: Test Example 5: herbicidal effect by foliage application, plastic box (Table 20, symbol G); assay type: in vivo, green foxtail (Setaria viridis); conditions: foliage application, three weeks after application
Method in brief: as §2

Italian ryegrass [1] = test: Test Example 5: herbicidal effect by foliage application, plastic box (Table 20, symbol K); assay type: in vivo, Italian ryegrass (Lolium multiflorum); conditions: foliage application, three weeks after application
Method in brief: as §2

Italian ryegrass [2] = test: Test Example 4: herbicidal effect by soil treatment (Table 19, symbol K); assay type: in vivo, Italian ryegrass (Lolium multiflorum)
Method in brief: as §3

wild oat = test: Test Example 4: herbicidal effect by soil treatment (Table 19, symbol I); assay type: in vivo, wild oat (Avena fatua)
Method in brief: as §3

southern crabgrass = test: Test Example 4: herbicidal effect by soil treatment (Table 19, symbol F); assay type: in vivo, southern crabgrass (Digitaria ciliaris)
Method in brief: as §3

Chinese sprangletop = test: Test Example 3: herbicidal effect by foliage application, Wagner pot (Table 18, symbol D); assay type: in vivo, chinese sprangletop (Leptochloa chinensis)
Method in brief: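 Plants were sown in alluvial soil held under 0.1–0.5 cm standing water and grown 14 days in a greenhouse at 25–30 °C. An emulsifiable formulation, water-diluted to the set dose, was then sprayed onto the foliage, and effects were scored three weeks later using previously defined criteria.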

lambsquarters [3] = test: Test Example 4: herbicidal effect by soil treatment (Table 19, symbol O); assay type: in vivo, lambsquarters (Chenopodium album)
Method in brief: as §3

lambsquarters [4] = test: Test Example 5: herbicidal effect by foliage application, plastic box (Table 20, symbol O); assay type: in vivo, lambsquarters (Chenopodium album); conditions: foliage application, three weeks after application
Method in brief: as §2

chickweed = test: Test Example 5: herbicidal effect by foliage application, plastic box (Table 20, symbol P); assay type: in vivo, common chickweed (Stellaria media); conditions: foliage application, three weeks after application
Method in brief: as §2

blackgrass = test: Test Example 4: herbicidal effect by soil treatment (Table 19, symbol J); assay type: in vivo, blackgrass (Alopecurus myosuroides)
Method in brief: as §3

Japanese bulrush = test: Test Example 1: herbicidal activity, application before weed generation under submerged conditions (Table 16, symbol B); assay type: in vivo, Japanese bulrush (Schoenoplectus juncoides)
Method in brief: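 Emulsion formulation, water-diluted to set dose, was put onto the flooded surface (4 cm depth, alluvial soil) the same day weeds were sown and 2.5-leaf rice transplanted. After 3 weeks at 25-30 °C under glass, each species was rated 0 (≤5% kill) to 5 (≥90% kill).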

CSCCOc1ccc(-c2sc3ccccc3c2-c2c(O)c(C)nn(C)c2=O)cc1 [1-141]
herbicidal effect rating, A: late watergrass (late watergrass; AAH 320 g/ha): 0 (Herbicidal rate of 5% or less (almost no effect)) | herbicidal effect rating, C: oval-leafed pondweed (oval-leafed pondweed; AAH 320 g/ha): 0 (Herbicidal rate of 5% or less (almost no effect)) | N: redroot pigweed, herbicidal effect (redroot pigweed; AAH 320 g/ha): 5 (Herbicidal rate of 90% or more (almost completely withered)) | M: velvetleaf, herbicidal effect (velvetleaf; AAH 320 g/ha): 4 (Herbicidal rate of 70% or more and less than 90%) | L: windgrass, herbicidal effect rating (windgrass; AAH 320 g/ha): 3 (Herbicidal rate of 40% or more and less than 70%) | G: green foxtail, herbicidal effect (green foxtail; AAH 320 g/ha): 5 (Herbicidal rate of 90% or more (almost completely withered)) | K: Italian ryegrass, herbicidal effect (Italian ryegrass [1]; AAH 320 g/ha): 5 (Herbicidal rate of 90% or more (almost completely withered)) | K: Italian ryegrass, herbicidal effect rating (Italian ryegrass [2]; AAH 320 g/ha): 5 (Herbicidal rate of 90% or more (almost completely withered)) | I: wild oat, herbicidal effect rating (wild oat; AAH 320 g/ha): 0 (Herbicidal rate of 5% or less (almost no effect)) | F: southern crabgrass, herbicidal effect rating (southern crabgrass; AAH 320 g/ha): 4 (Herbicidal rate of 70% or more and less than 90%) | herbicidal effect on D (Chinese sprangletop), rating 0-5 (Chinese sprangletop; 320 g/ha): 3 (Herbicidal rate of 40% or more and less than 70%) | O: lambsquarters, herbicidal effect rating (lambsquarters [3]; AAH 320 g/ha): 5 (Herbicidal rate of 90% or more (almost completely withered)) | O: lambsquarters, herbicidal effect (lambsquarters [4]; AAH 320 g/ha): 5 (Herbicidal rate of 90% or more (almost completely withered)) | P: chickweed, herbicidal effect (chickweed; AAH 320 g/ha): 5 (Herbicidal rate of 90% or more (almost completely withered)) | J: blackgrass, herbicidal effect rating (blackgrass; AAH 320 g/ha): 0 (Herbicidal rate of 5% or less (almost no effect)) | Herbicidal effect on B: Japanese bulrush (grade 0-5) (Japanese bulrush; 320 g/ha applied herbicide): 0 (Herbicidal rate of 5% or less (almost no effect))

Cc1nn(C)c(=O)c(-c2c(-c3ccc(OCC4CC4)cc3)sc3ccccc23)c1O [1-142]
herbicidal effect rating, A: late watergrass (late watergrass; AAH 320 g/ha): 0 (Herbicidal rate of 5% or less (almost no effect)) | herbicidal effect rating, C: oval-leafed pondweed (oval-leafed pondweed; AAH 320 g/ha): 0 (Herbicidal rate of 5% or less (almost no effect)) | N: redroot pigweed, herbicidal effect (redroot pigweed; AAH 320 g/ha): 2 (Herbicidal rate of 20% or more and less than 40%) | M: velvetleaf, herbicidal effect (velvetleaf; AAH 320 g/ha): 1 (Herbicidal rate of 5% or more and less than 20%) | L: windgrass, herbicidal effect rating (windgrass; AAH 320 g/ha): 0 (Herbicidal rate of 5% or less (almost no effect)) | G: green foxtail, herbicidal effect (green foxtail; AAH 320 g/ha): 2 (Herbicidal rate of 20% or more and less than 40%) | K: Italian ryegrass, herbicidal effect (Italian ryegrass [1]; AAH 320 g/ha): 0 (Herbicidal rate of 5% or less (almost no effect)) | K: Italian ryegrass, herbicidal effect rating (Italian ryegrass [2]; AAH 320 g/ha): 0 (Herbicidal rate of 5% or less (almost no effect)) | I: wild oat, herbicidal effect rating (wild oat; AAH 320 g/ha): 0 (Herbicidal rate of 5% or less (almost no effect)) | F: southern crabgrass, herbicidal effect rating (southern crabgrass; AAH 320 g/ha): 0 (Herbicidal rate of 5% or less (almost no effect)) | herbicidal effect on D (Chinese sprangletop), rating 0-5 (Chinese sprangletop; 320 g/ha): 1 (Herbicidal rate of 5% or more and less than 20%) | O: lambsquarters, herbicidal effect rating (lambsquarters [3]; AAH 320 g/ha): 5 (Herbicidal rate of 90% or more (almost completely withered)) | O: lambsquarters, herbicidal effect (lambsquarters [4]; AAH 320 g/ha): 3 (Herbicidal rate of 40% or more and less than 70%) | P: chickweed, herbicidal effect (chickweed; AAH 320 g/ha): 5 (Herbicidal rate of 90% or more (almost completely withered)) | J: blackgrass, herbicidal effect rating (blackgrass; AAH 320 g/ha): 0 (Herbicidal rate of 5% or less (almost no effect)) | Herbicidal effect on B: Japanese bulrush (grade 0-5) (Japanese bulrush; 320 g/ha applied herbicide): 5 (Herbicidal rate of 90% or more (almost completely withered))

COCCOc1ccc(-c2sc3ccccc3c2-c2c(O)c(C)nn(C)c2=O)cc1 [1-148]
herbicidal effect rating, A: late watergrass (late watergrass; AAH 368 g/ha): 3 (Herbicidal rate of 40% or more and less than 70%) | herbicidal effect rating, C: oval-leafed pondweed (oval-leafed pondweed; AAH 368 g/ha): 1 (Herbicidal rate of 5% or more and less than 20%) | N: redroot pigweed, herbicidal effect (redroot pigweed; AAH 368 g/ha): 5 (Herbicidal rate of 90% or more (almost completely withered)) | M: velvetleaf, herbicidal effect (velvetleaf; AAH 368 g/ha): 5 (Herbicidal rate of 90% or more (almost completely withered)) | L: windgrass, herbicidal effect rating (windgrass; AAH 368 g/ha): 0 (Herbicidal rate of 5% or less (almost no effect)) | G: green foxtail, herbicidal effect (green foxtail; AAH 368 g/ha): 5 (Herbicidal rate of 90% or more (almost completely withered)) | K: Italian ryegrass, herbicidal effect (Italian ryegrass [1]; AAH 368 g/ha): 5 (Herbicidal rate of 90% or more (almost completely withered)) | K: Italian ryegrass, herbicidal effect rating (Italian ryegrass [2]; AAH 368 g/ha): 5 (Herbicidal rate of 90% or more (almost completely withered)) | I: wild oat, herbicidal effect rating (wild oat; AAH 368 g/ha): 2 (Herbicidal rate of 20% or more and less than 40%) | F: southern crabgrass, herbicidal effect rating (southern crabgrass; AAH 368 g/ha): 4 (Herbicidal rate of 70% or more and less than 90%) | herbicidal effect on D (Chinese sprangletop), rating 0-5 (Chinese sprangletop; 368 g/ha): 4 (Herbicidal rate of 70% or more and less than 90%) | O: lambsquarters, herbicidal effect rating (lambsquarters [3]; AAH 368 g/ha): 5 (Herbicidal rate of 90% or more (almost completely withered)) | O: lambsquarters, herbicidal effect (lambsquarters [4]; AAH 368 g/ha): 5 (Herbicidal rate of 90% or more (almost completely withered)) | P: chickweed, herbicidal effect (chickweed; AAH 368 g/ha): 5 (Herbicidal rate of 90% or more (almost completely withered)) | J: blackgrass, herbicidal effect rating (blackgrass; AAH 368 g/ha): 1 (Herbicidal rate of 5% or more and less than 20%) | Herbicidal effect on B: Japanese bulrush (grade 0-5) (Japanese bulrush; 368 g/ha applied herbicide): 3 (Herbicidal rate of 40% or more and less than 70%)
